Measurements from US20150080475A1, “Memantine Protects Inflammation-Related Degeneration of Dopamine Neurons Through Inhibition of Over-Activated Microglia and Release of Neurotrophic Factors From Astroglia” (priority 2009, published 2015).

Columns and labels:
[1] = test system: DA neurons; assay: LPS-induced neurotoxicity in neuron/glia cultures from NADPH oxidase-deficient mice; assay type: cell-based; conditions: NADPH oxidase-deficient (gp 91 lacking) neuron/glia cultures, preliminary data
Text: Results from two sets of experiments support this conclusion. […] Thus, the failure for MMT to protect LPS-induced DA neurons toxicity in NADPH oxidase-deficient neuron/glia cultures implies a critical role of this enzyme in mediating the neuroprotective effect of MMT. The present invention determines the binding site of MMT in microglia.
Timed-pregnant (gestational day 14) adult female Fisher 344 rats were purchased from Charles River Laboratories (Raleigh, N.C., USA). Eight-wk-old (25-30 g) male and female B6.129S6-Cybb^tm1Din(PHOX^−/−) and C57BL/6J (PHOX^+/+) mice were purchased from Jackson Laboratories (Bar Harbor, Me., USA) and maintained in a strict pathogen free environment. The PHOX^−/− mice lack the functional catalytic subunit of the NADPH oxidase complex, gp91. NADPH oxidase is an inducible electron transport system in phagocytic cells that is responsible for the generation of the respiratory burst. PHOX^−/− mice are unable to generate extracellular superoxide in response to LPS or other immunological stimulus. Breeding of the mice was designed to achieve accurate timed-pregnancy±0.5 days. Because the PHOX^−/− mutation is maintained in the C57BL/6J background, the C57BL/6J (PHOX^+/+) mice were used as control animals. Housing, breeding and experimental use of the animals were performed in strict accordance with the National Institutes of Health guidelines. […]

[2] = test system: DA neurons; assay: LPS-induced dopaminergic neurotoxicity in microglia-depleted neuron-glia cultures; assay type: cell-based; conditions: microglia depleted by LME to <1%, LPS 7 days
Description: To evaluate the influence of various kinds of glia contribute to effect of MMT on LPS-induced dopaminergic neurotoxicity, microglia-depleted Neuron-/glia Cultures were performed.

[3] = test system: rewarding effect of morphine; assay: Conditioned place preference (CPP) test in chronic morphine-treated rats; assay type: in vivo, SD rats
Description: The SD rats were divided into four groups as follow: • 1. Control group: (inject saline only) • 2. Morphine only group: (M, 5 mg/kg) • 3. Pretreatment memantine (MEM, 0.2 mg/kg) with morphine group • (MEM was administrated 30 min before each M injection for 6 days) • 4. Post-treatment MEM group • (MEM was administrated after chronic M injection for 6 days)
Drug-induced reward effect was measured by the conditioned place preference (CPP) test. The CPP test apparatus was divided into two compartments. A two compartment box (60×29.2×29.2 cm) with a transparent Plexiglas front was separated by a gray cylinder platform (10.3 cm in diameter and 12 cm in height) as the Dr. Tseng described previously was used (Terashvili et al., 2008). One compartment was white with a textured floor and the other was black with a smooth floor. […] We determined the place preference before conditioning and on the day after conditioning (day 0, day 7, day 11 and day 13) by placing the rat into the CPP test apparatus with the gray cylinder doors open for 15 min. The time that the rats stayed in each compartment was recorded. The measurement of the drug reward effect was determined by the increase in the time spent in the compartment previously paired with drug injection relative to that spent in the saline-paired compartment.

[4] = test system: PGE2; assay: PGE2 ELISA after LPS; assay type: cell-based
Description: The production of TNF-α was measured with a commercial ELISA kit from R&D Systems. The PGE2 release was measured with a commercial ELISA kit from Cayman Chemical Company.
Neuron-glia cultures were pretreated for 30 min with MMT (3 μM) or vehicle before LPS stimulation. […] Production of superoxide (30 min after LPS) and iROS (2 h after LPS) was decreased by MMT treatment (FIGS. 6A and 6B). […] The production of PGE2 in cultures pretreated with 3 and 10 μM MMT decreased by 23% and 27% respectively (FIG. 6E).

[5] = test system: DA neurons; assay: [3H] DA uptake, MMT alone in rat mesencephalic neuron-glia cultures (neurotrophic effect); assay type: cell-based; conditions: for increase of DA uptake capacity by MMT alone: one week
Description: Rat and mouse ventral mesencephalic neuron-glia cultures were prepared using a described protocol (Gao H M, Hong J S, Zhang W Q, Liu B (2002) Distinct Role for Microglia in Rotenone-Induced Degeneration of Dopaminergic Neurons. J Neurosci 22(3):782-790). Briefly, midbrain tissues were dissected from day 14 Fisher 344 rat embryos or day 14 mouse embryos (PHOX^+/+ or PHOX^−/−). Cells were dissociated via gentle mechanical trituration in minimum essential medium (MEM) and immediately seeded (5×10^5/well) in poly D-lysine (20 μg/mL) precoated 24-well plates. Cells were seeded in maintenance media and treated with the treatment media described previously (Gao H M, Hong J S, Zhang W Q, Liu B (2002) Distinct Role for Microglia in Rotenone-Induced Degeneration of Dopaminergic Neurons. J Neurosci 22(3):782-790). Three days after seeding, the cells were replenished with 500 μL of fresh maintenance media. Cultures were exposed 7 days after seeding. At the time of treatment, the composition of the cultures was approximately 48% astrocytes, 11% microglia, 40% neurons, and 1 to 1.5% TH-immunoreactive (ir) neurons.
Cells were incubated in Krebs-Ringer buffer (16 mM NaH2PO4, 1.2 mM MgSO4, 1.3 mM EDTA, […], for 21 min at 37° C. with 1 μM [^3H] DA. Nonspecific uptake was blocked for DA with 10 μM mazindole. After incubation, cells were washed three times with 1 mL/well of ice-cold Krebs-Ringer buffer. Cells were then lysed with 0.5 mL/well of 1 N NaOH and mixed with 15 mL of scintillation fluid. Radioactivity was measured on a scintillation counter, where specific [^3H] DA uptake was calculated by subtracting the mazindole.
Rat mesencephalic neuron-glia cultures were pretreated for 30 min with vehicle or 1, 3, 10 μM MMT before adding LPS (2.5 to 5 ng/ml) to the cultures. One week later, the neurotoxic effect of LPS on DA neurons were assessed by both [H^3] DA uptake, which measures the functional capacity of high affinity uptake of DA cells and cell count of tyrosine hydroxylase-positive (TH-ir) cells. [H^3] […]

CC12CC3CC(C)(C1)CC(N)(C3)C2.Cl [MMT, 1-amino-3,5-dimethyladamantane hydrochloride]
neuroprotective effect on LPS-induced neurotoxicity [1]: failed to produce any neuroprotective effect
protective effect against LPS-induced dopaminergic neurotoxicity [2]: not found in depletion of microglia
time of staying in the compartment paired with morphine (CPP) ([3]; post-treatment, memantine 0.2 mg/kg s.c. once daily for 6 days after chronic morphine): reduced time of staying in the compartment paired with morphine
time of staying in the compartment paired with morphine (CPP) ([3]; pretreatment, memantine 0.2 mg/kg s.c. 30 min before each morphine 5 mg/kg i.p., 6 days): reduced time of staying in the compartment paired with morphine
decrease of PGE2 production ([4]; pretreated with 3 μM MMT): 23%
decrease of PGE2 production ([4]; pretreated with 10 μM MMT): 27%
increase of DA uptake capacity by MMT alone ([5]; 3 μM MMT): 30%
increase of DA uptake capacity by MMT alone ([5]; 10 μM MMT): 80%
effect against spontaneous DA neurons death ([5]; MMT alone, rat primary midbrain neuron-glia cultures): dose-dependent surviving-promoting effects
